{"source": "ChEMBL document CHEMBL3259685", "about": "“Successful application of serum shift prediction models to the design of dual targeting inhibitors of bacterial gyrase B and topoisomerase IV with improved in vivo efficacy” (Bioorg Med Chem Lett, 2014)", "key": {"Staphylococcus aureus [1]": {"test_system": "Staphylococcus aureus", "assay": "Antimicrobial activity against Staphylococcus aureus ATCC 29213 in presence of 50% human serum", "format": "functional"}, "Staphylococcus aureus [2]": {"test_system": "Staphylococcus aureus", "assay": "Antimicrobial activity against Staphylococcus aureus ATCC 29213", "format": "functional"}, "Streptococcus pneumoniae [3]": {"test_system": "Streptococcus pneumoniae", "assay": "Antimicrobial activity against Streptococcus pneumoniae in presence of 50% human serum", "format": "functional"}, "Staphylococcus aureus [4]": {"test_system": "Staphylococcus aureus", "assay": "Antimicrobial activity against Staphylococcus aureus in rat thigh assessed as log reduction of CFU at 50 mg/kg, iv after 6 hrs", "format": "functional"}, "Rattus norvegicus": {"test_system": "Rattus norvegicus", "assay": "Dose normalized AUC in rat at 2.8 to 9.5 mg/kg, iv", "format": "ADME, organism-based", "set-up": "dose 2.8-9.5 mg/kg, route intravenous", "conditions": "in vivo"}, "[5]": {"assay": "Half life in rat at 2.8 to 9.5 mg/kg, iv", "format": "ADME, organism-based", "set-up": "dose 2.8-9.5 mg/kg, route intravenous", "conditions": "in vivo"}, "Streptococcus pneumoniae [6]": {"test_system": "Streptococcus pneumoniae", "assay": "Antimicrobial activity against Streptococcus pneumoniae", "format": "functional"}, "[7]": {"assay": "Volume of distribution at steady state in rat at 2.8 to 9.5 mg/kg, iv", "format": "ADME, organism-based", "set-up": "dose 2.8-9.5 mg/kg, route intravenous", "conditions": "in vivo, read-out: Vdss"}, "[8]": {"assay": "Clearance in rat at 2.8 to 9.5 mg/kg, iv", "format": "ADME, organism-based", "set-up": "dose 2.8-9.5 mg/kg, route intravenous", "conditions": "in vivo"}, "Staphylococcus aureus [9]": {"test_system": "Staphylococcus aureus", "assay": "Antimicrobial activity against Staphylococcus aureus in rat thigh assessed as log reduction of CFU at 30 mg/kg, iv after 8 hrs", "format": "functional"}, "Streptococcus pneumoniae [10]": {"test_system": "Streptococcus pneumoniae", "assay": "Antimicrobial activity against Streptococcus pneumoniae infected in rat lung infection model assessed as log reduction of bacterial density at 30 mg/kg, po", "format": "functional"}, "Streptococcus pneumoniae [11]": {"test_system": "Streptococcus pneumoniae", "assay": "Antimicrobial activity against Streptococcus pneumoniae infected in rat lung infection model assessed as log reduction of bacterial density at 3 mg/kg, po", "format": "functional"}, "Staphylococcus aureus [12]": {"test_system": "Staphylococcus aureus", "assay": "Antimicrobial activity against Staphylococcus aureus in rat thigh assessed as log reduction of CFU at 3 mg/kg, iv after 8 hrs", "format": "functional"}, "Staphylococcus aureus [13]": {"test_system": "Staphylococcus aureus", "assay": "Antimicrobial activity against Staphylococcus aureus ATCC 29213 infected in Sprague-Dawley rat cyclophosphamide-induced neutropenic sepsis model assessed as host survival at 25 mg/kg, iv administered 1 hr after bacterial infection measured up to 120 hrs", "conditions": "ATCC 29213, iv"}, "Streptococcus pneumoniae [14]": {"test_system": "Streptococcus pneumoniae", "assay": "Antimicrobial activity against Streptococcus pneumoniae infected in rat lung infection model assessed as log reduction of bacterial density at 38.5 mg/kg, iv", "format": "functional"}, "Staphylococcus aureus [15]": {"test_system": "Staphylococcus aureus", "assay": "Antimicrobial activity against Staphylococcus aureus at 25 mg/kg, iv"}}, "note": "Active and inactive are the calls of the source. The calls are words filed in the database; no cut-off is given here.", "data": [{"molecule": "CCNC(=O)Nc1nc2cc(-c3ccc(N)nc3)cc(-c3ncccn3)c2[nH]1", "values": [{"measurement": "MIC", "setting": "Staphylococcus aureus [1]", "result": 0.25, "unit": "µg/mL"}, {"measurement": "MIC", "setting": "Staphylococcus aureus [2]", "result": 0.125, "unit": "µg/mL"}]}, {"molecule": "CCNC(=O)Nc1nc2cc(-c3cccnc3)cc(-c3ncccc3F)c2[nH]1", "values": [{"measurement": "fold change (FC)", "setting": "Streptococcus pneumoniae [3]", "result": 20}, {"measurement": "FC", "setting": "Staphylococcus aureus [4]", "result": 1.5}, {"measurement": "MIC", "setting": "Staphylococcus aureus [1]", "result": 0.625, "unit": "µg/mL"}, {"measurement": "AUC/dose", "setting": "Rattus norvegicus", "result": 1.1, "unit": "µg·h/mL"}, {"measurement": "half-life", "setting": "[5]", "result": 42, "unit": "min"}, {"measurement": "MIC", "setting": "Streptococcus pneumoniae [6]", "result": 4, "unit": "ng/mL"}, {"measurement": "MIC", "setting": "Staphylococcus aureus [2]", "result": 0.031, "unit": "µg/mL"}, {"measurement": "Vd", "setting": "[7]", "result": 1.6, "unit": "L/kg"}, {"measurement": "clearance", "setting": "[8]", "result": 14, "unit": "mL/min/kg"}]}, {"molecule": "CCNC(=O)Nc1nc2cc(-c3cnc(C(C)(C)O)nc3)cc(-c3ncccc3F)c2[nH]1", "values": [{"measurement": "fold change (FC)", "setting": "Streptococcus pneumoniae [3]", "result": 8}, {"measurement": "FC", "setting": "Staphylococcus aureus [9]", "result": 2.1}, {"measurement": "FC", "setting": "Streptococcus pneumoniae [10]", "result": 5.8}, {"measurement": "MIC", "setting": "Staphylococcus aureus [1]", "result": 0.25, "unit": "µg/mL"}, {"measurement": "AUC/dose", "setting": "Rattus norvegicus", "result": 0.8, "unit": "µg·h/mL"}, {"measurement": "FC", "setting": "Streptococcus pneumoniae [11]", "result": 3.7}, {"measurement": "half-life", "setting": "[5]", "result": 72, "unit": "min"}, {"measurement": "MIC", "setting": "Streptococcus pneumoniae [6]", "result": 4, "unit": "ng/mL"}, {"measurement": "MIC", "setting": "Staphylococcus aureus [2]", "result": 0.032, "unit": "µg/mL"}, {"measurement": "Vd", "setting": "[7]", "result": 2.1, "unit": "L/kg"}, {"measurement": "clearance", "setting": "[8]", "result": 23, "unit": "mL/min/kg"}, {"measurement": "FC", "setting": "Staphylococcus aureus [12]", "result": 1.7}]}, {"molecule": "CCNC(=O)Nc1nc2cc(-c3cnc(CN4CCOCC4)nc3)cc(-c3ncccc3F)c2[nH]1", "values": [{"measurement": "MIC", "setting": "Staphylococcus aureus [1]", "result": 0.125, "unit": "µg/mL"}, {"measurement": "MIC", "setting": "Staphylococcus aureus [2]", "result": 0.125, "unit": "µg/mL"}]}, {"molecule": "CC(=O)NC[C@H]1CN(c2ccc(N3CCOCC3)c(F)c2)C(=O)O1", "note": "[LINEZOLID]", "values": [{"measurement": "fold change (FC)", "setting": "Streptococcus pneumoniae [3]", "result": 1}, {"measurement": "FC", "setting": "Staphylococcus aureus [9]", "result": 1.4}, {"measurement": "FC", "setting": "Streptococcus pneumoniae [10]", "result": 4.5}, {"measurement": "AUC/dose", "setting": "Rattus norvegicus", "result": 1.1, "unit": "µg·h/mL"}, {"measurement": "FC", "setting": "Streptococcus pneumoniae [11]", "result": 0.8}, {"measurement": "half-life", "setting": "[5]", "result": 42, "unit": "min"}, {"measurement": "MIC", "setting": "Streptococcus pneumoniae [6]", "result": 400, "unit": "ng/mL"}, {"measurement": "MIC", "setting": "Staphylococcus aureus [2]", "result": 1.56, "unit": "µg/mL"}, {"measurement": "survival at 25 mg/kg", "setting": "Staphylococcus aureus [13]", "result": 30, "unit": "%"}, {"measurement": "Vd", "setting": "[7]", "result": 1, "unit": "L/kg"}, {"measurement": "clearance", "setting": "[8]", "result": 14.5, "unit": "mL/min/kg"}, {"measurement": "Activity", "setting": "Staphylococcus aureus [12]", "result": "inactive"}]}, {"molecule": "CCNC(=O)Nc1nc2cc(-c3cnc4ccccc4c3)cc(-c3ncccn3)c2[nH]1", "values": [{"measurement": "MIC", "setting": "Staphylococcus aureus [1]", "result": 2, "unit": "µg/mL"}, {"measurement": "MIC", "setting": "Staphylococcus aureus [2]", "result": 0.032, "unit": "µg/mL"}]}, {"molecule": "CCNC(=O)Nc1nc2cc(-c3cccnc3)cc(-c3ccccn3)c2[nH]1", "values": [{"measurement": "fold change (FC)", "setting": "Streptococcus pneumoniae [3]", "result": 43}, {"measurement": "FC", "setting": "Streptococcus pneumoniae [14]", "result": 3}, {"measurement": "MIC", "setting": "Staphylococcus aureus [1]", "result": 2, "unit": "µg/mL"}, {"measurement": "AUC/dose", "setting": "Rattus norvegicus", "result": 1.6, "unit": "µg·h/mL"}, {"measurement": "half-life", "setting": "[5]", "result": 126, "unit": "min"}, {"measurement": "MIC", "setting": "Streptococcus pneumoniae [6]", "result": 4, "unit": "ng/mL"}, {"measurement": "MIC", "setting": "Staphylococcus aureus [2]", "result": 0.047, "unit": "µg/mL"}, {"measurement": "survival at 25 mg/kg", "setting": "Staphylococcus aureus [13]", "result": 20, "unit": "%"}, {"measurement": "Vd", "setting": "[7]", "result": 1.1, "unit": "L/kg"}, {"measurement": "clearance", "setting": "[8]", "result": 12.5, "unit": "mL/min/kg"}, {"measurement": "Activity", "setting": "Staphylococcus aureus [15]", "result": "Active"}]}, {"molecule": "CCNC(=O)Nc1nc2cc(-c3ccc(CN(C)C)nc3)cc(-c3ncccn3)c2[nH]1", "values": [{"measurement": "MIC", "setting": "Staphylococcus aureus [1]", "result": 0.125, "unit": "µg/mL"}, {"measurement": "MIC", "setting": "Staphylococcus aureus [2]", "result": 0.5, "unit": "µg/mL"}]}, {"molecule": "CCNC(=O)Nc1nc2cc(-c3cccnc3)cc(-n3cccn3)c2[nH]1", "values": [{"measurement": "MIC", "setting": "Staphylococcus aureus [1]", "result": 4, "unit": "µg/mL"}, {"measurement": "MIC", "setting": "Staphylococcus aureus [2]", "result": 0.125, "unit": "µg/mL"}]}, {"molecule": "CCNC(=O)Nc1nc2cc(-c3ccc(C(N)=O)nc3)cc(-c3ncccn3)c2[nH]1", "values": [{"measurement": "MIC", "setting": "Staphylococcus aureus [1]", "result": 0.25, "unit": "µg/mL"}, {"measurement": "MIC", "setting": "Staphylococcus aureus [2]", "result": 0.064, "unit": "µg/mL"}]}, {"molecule": "CCNC(=O)Nc1nc2cc(-c3ccc[n+]([O-])c3)cc(-c3ncccc3F)c2[nH]1", "values": [{"measurement": "MIC", "setting": "Staphylococcus aureus [1]", "result": 0.5, "unit": "µg/mL"}, {"measurement": "MIC", "setting": "Staphylococcus aureus [2]", "result": 0.5, "unit": "µg/mL"}]}]}
